Earlier results as cited in patent US20260325503A1, “LONG-ACTING FORMULATIONS” (JANSSEN PHARMACEUTICA NV, priority 2022, published 2026).

Tests used:
[1] = test system: mycobacterial ATP synthase; settings: mycobacterial ATP synthase versus eukaryotic mitochondrial ATP synthase

Compound: COc1nc2ccc(Br)cc2cc1[C@@H](c1ccccc1)[C@@](O)(CCN(C)C)c1cccc2ccccc12 [bedaquiline]
- minimal dose killing 99% of bacilli (Mycobacterium leprae; M. lepra): < 5.0 mg/kg/wk
- Bactericidal activity (in words) (Mycobacterium leprae; mycobacterium leprae, mice): bactericidal
- minimal dose killing 99% of bacilli (M. tuberculosis): 30 mg/kg/wk
- selectivity index [1]: more than 20000
